The nature of data set [1]: Cyclic voltammetry (CV) screening of oxidation potentials. The conditions noted are these: glassy carbon working electrode, 0.2 M lithium perchlorate. Format: physicochemical. How it is done: The oxidation/reduction characteristics of the compounds were investigated. Several compounds, including L-Trp and derivatives, were evaluated for the protection of Trp oxidation in proteins using cyclic voltammetry (CV) and rank ordered based on their oxidation potentials (Table 2). Specifically, the candidate antioxidants were dissolved in deionized water and then added to a 0.2 M lithium perchlorate electrolyte solution. […] Solutions were scanned from −0.10 V to +1.50 V at a scan rate of either 100 or 500 mV/sec. The analytical cell was purged for four minutes with nitrogen before scanning of each antioxidant solution. The input was a linear scan of the potential of a working electrode, and the output was measurement of the resulting current. […] Redox reactions were characterized by sharp increases or decreases in current (peaks). The potential at which an oxidation reaction occurred was referred to as the anodic peak potential (or oxidation potential), and the potential at which a reduction occurred was referred to as is the cathodic peak (or reduction) potential.

For data set [2], the system named is mAb1. The data set is described as follows: mAb1 light stress, eight hours, with L-Trp and L-Met; Fab/Fc oxidation by papain digest RP-HPLC. Format: physicochemical, human. The conditions noted are these: 5 mg/mL mAb1, 8 h light at 250 W/m^2, L-Trp at 1 mM. How it is done: L-tryptophan (L-Trp), an antioxidant used in protein formulations, has been recently shown to be photosensitive (Igarashi et al., Anal Sci 23(8):943-8 (2007)) and to have the ability to produce H2O2 upon light exposure. […] Control vials were wrapped in aluminum foil and treated similarly. After light exposure, solutions were prepared for analysis by reverse-phase HPLC. […] Following incubation, 900 μL of the solution was combined with 100 μL of 1 M dithiothreitol (DTT) and incubated for another thirty minutes at 37° C. Samples were then run on an Agilent, Inc. 1100/1200 HPLC system (Santa Clara, Calif.) equipped with UV detection at 280 nm in conjunction with a Varian, Inc. Pursuit 3 μm, 2 mm ID×250 mm diphenyl column (Palo Alto, Calif.). Mobile Phase A was 0.1% TFA in water. Mobile Phase B was 0.1% TFA in acetonitrile. The mobile phase gradient increased linearly from 34% B at 0 minutes to 43% B at 50.0 minutes, then to 95% B at 50.1 minutes. The gradient remained at 95% B until 60.1 minutes, and then decreased linearly from 95% B to 34% B between 60.1 and 60.2 minutes. The gradient remained at 34% B until the end of the cycle at 80.2 minutes. The column temperature was 65° C., total flow rate was 0.2 mL/min, and injection volume of each sample was 6 μL. Chromatograms were then integrated for quantification of oxidation.

Data set [3] in a line: H2O2 generation by free L-Trp upon light exposure for 3 hours (Amplex assay). Format: physicochemical. How it is done:
It was previously reported that L-Trp produced H2O2 via superoxide ion and in a sub-stoichiometric fashion while antibodies under similar conditions were producing catalytic amounts (Wentworth et al., Science 293(5536):1806-11 (2001); McCormick et al., Journal of the American Chemical Society 100:312-313 (1978)). To test the susceptibility of free L-Trp under pharmaceutically relevant conditions, such as under both ICH and ambient light conditions, formulations comprising 0.32 mM to 7.5 mM of L-Trp were exposed for 3 hours at 250 W/m^2 UV light and about 150 k lux visible light. Samples were taken and analyzed immediately via the Amplex assay to detect the amount of H2O2 generated under these conditions. […] When L-Trp was incubated with a combination of 50 mM NaN3 and 150 U superoxide dismutase (SOD) or SOD alone, significant amounts of H2O2 were still detected in the samples not containing NaN3.

The subject of data set [4] is mAb1. The data set is described as follows: Ambient light exposure of 50 mg/mL mAb1 formulations containing L-Trp (Amplex assay, RP-HPLC). Format: physicochemical, human. The source says:
While confirming the photosensitivity of free L-Trp under ICH light conditions, the effect of ambient light that was typically seen in laboratories was studied. Measurements using a DLM1 digital light meter in various labs indicated an average of 300 lux on a lab benchtop (with white fluorescent lighting), an average of 3000 lux in a laminar flow hood (with white fluorescent lighting) and about 10000 lux for a windowsill exposed to southeast sunlight. […] Peroxide production increased with both luminosity (300, 3000, and 10000 lux) and time (1, 3, and 7 days). […] These levels of light exposure and time were determined to be pharmaceutically relevant for drug substance handling under ambient light and temperature before fill/finish operations and potentially while inspecting drug product vials.

In data set [5] the test system is mAb1. The data set is described as follows: mAb1 light stress study, 16 hours; Fab/Fc oxidation by RP-HPLC. Format: physicochemical, human. The conditions noted are these: 16 hours of light at 250 W/m^2. How it is done:
The fragments were reduced with DTT, and then separated and identified via Liquid Chromatography-Mass Spectrometry (LC-MS). […] Comparison of area integrated under the oxidized and native peaks was used to quantify HC Fab and Fc oxidation. […] By using the papain digest RP-HPLC method in the present study it was possible to investigate Trp residue oxidation by quantifying HC Fab oxidation, and Met residue oxidation by quantifying HC Fc oxidation.
Antioxidants were added at 1 mM. Glass vials containing these formulations were exposed to 250 W/m^2 light in an Atlas SunTest CPS+ Xenon Test Instrument (Chicago, Ill.). Control vials were wrapped in aluminum foil and treated similarly. After light exposure, solutions were prepared for analysis by reverse-phase HPLC as described above.

Data set [6] relates to mAb1. The data set is described as follows: mAb1 Fenton stress study (H2O2 + Fe); Fab/Fc oxidation by RP-HPLC. Format: physicochemical, human. The conditions noted are these: 1 mM, 10 ppm H2O2, 0.2 mM Fe(III), 40° C. for 3 hours. How it is done:
Antioxidants were added at a final concentration of 1 mM. […] After incubation, each reaction was quenched by addition of 100 mM L-Met and then prepared for analysis by reverse-phase HPLC as described above.
The Fenton reaction, using a mixture of H2O2 and Fe ions, generates oxidation through a metal catalyzed, hydroxyl radical reaction (Prousek et al., Pure and Applied Chemistry 79(12):2325-2338 (2007)). This reaction generated Fab, i.e. tryptophan, oxidation in mAb1. The reaction was also carried out in the presence of select antioxidants that were useful against both AAPH and light induced oxidation as reported above. Data related to the antioxidant properties against Fenton mediated reaction were analyzed using the RP-HPLC assay as described above. The Fenton reaction used 10 ppm of H2O2 and 0.2 mM of Fe(III). The reaction was incubated at 40° C. for 3 hours, quenched with 100 mM L-Met and analyzed using RP-HPLC after papain digest. All samples were the average of three separate vials, and mAb1 control (Ref Mat) was one vial with five independent injections on the HPLC. […] In regards to protection against Fc oxidation, the tested excipients (other than salicylic acid) performed slightly better than L-Trp.

In the case of `N[C@@H](Cc1c[nH]c2ccccc12)C(=O)O` [L-Trp, L-Tryptophan], the “Oxidation Potential (anodic peak)” value in data set [1] was found to be 0.938 V vs Ag/AgCl. Moreover, the “Fc oxidation of mAb1” value in data set [2] is on record as “over 20%”. Moreover, in data set [2] (label mAb1 = No Excipient), the “Fab oxidation of mAb1” value is listed as approximately 9%. For the same compound, the “H2O2 generated by free L-Trp upon light exposure” value in data set [3] (0.32 mM to 7.5 mM L-Trp, 3 hours at 250 W/m^2 UV light and about 150 k lux visible light) is “large quantity of H2O2”. Further, the “H2O2 generation by L-Trp in the presence of sodium azide” value in data set [3] (50 mM sodium azide, 3 hours light) is on record as “reduced greatly”. Further, the “Heavy chain Fab oxidation (W53) with increased luminosity (in words)” value in data set [4] (50 mg/mL mAb1 with 3.2 mM L-Trp, 10 days ambient light) is “increased heavy chain Fab oxidation”. Also, the “% Fc oxidation in mAb1” value was found to be 5% in data set [4] (50 mg/mL mAb1 with 3.2 mM L-Trp, ambient light 300 lux) and 40% in data set [4] (50 mg/mL mAb1 with 3.2 mM L-Trp, ambient light 10000 lux). Besides, the “Hydrogen peroxide produced under ambient light” value in data set [4] (L-Trp in formulation buffers containing 50 mg/mL mAb1, 300, 3000, 10000 lux, 1, 3, 7 days) is listed as “in the micromolar range”. Further, the “Fc oxidation relative to the control level” value in data set [5] (1 mM L-Trp) was 7 times. For the same compound, the “Fab oxidation increase over the control level (mAb1 Ref Mat)” value in data set [5] (excipient 1 mM, label mAb1 = No Excipient) is listed as “over 11 fold”. In addition, the “Protection of Fab oxidation with respect to the no excipient case” value in data set [6] is “about 25%”.

(Values after patent US10653779B2, “Formulations with reduced oxidation” (Genentech, Inc., priority 2013, dated 2020).)
